Assay results as given in patent US6444819B1, “Benzylpiperazinyl and piperidinyl ethanone derivatives: dopamine receptor subtype specific ligands” (Neurogen Corporation, priority 1998, dated 2002).

Target: T1, human D4 receptors (Homo sapiens, UniProt P21917)
T1 construct: expressed in transfected cells; host or cells: CHO cells
T1 sequence (P21917 1-419): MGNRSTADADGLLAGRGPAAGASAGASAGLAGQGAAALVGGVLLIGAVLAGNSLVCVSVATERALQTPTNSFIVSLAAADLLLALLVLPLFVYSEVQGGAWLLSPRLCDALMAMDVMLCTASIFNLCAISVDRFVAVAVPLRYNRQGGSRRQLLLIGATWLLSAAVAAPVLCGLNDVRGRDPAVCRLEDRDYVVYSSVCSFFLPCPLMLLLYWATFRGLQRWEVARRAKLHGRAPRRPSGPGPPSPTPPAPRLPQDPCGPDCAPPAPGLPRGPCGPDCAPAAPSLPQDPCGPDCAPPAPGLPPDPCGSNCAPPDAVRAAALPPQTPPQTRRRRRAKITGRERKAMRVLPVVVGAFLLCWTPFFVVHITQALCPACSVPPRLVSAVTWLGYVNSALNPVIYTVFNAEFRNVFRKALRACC
Assay: D4 receptor binding assay (3H-YM 09151-2 displacement)
Details: CHO cell membranes with cloned human D4 receptor; 0.5 nM 3H-YM 09151-2
Description: The cloned membranes are homogenized in 100 volumes (wt/vol) of 0.05 M Tris-HCl buffer at 4° C. and pH 7.4 containing 120 mM NaCl, 1 mM EDTA and 5 mM MgCl2. The samples were centrifuged at 48,000×g then re-suspended and re-homogenized. The final tissue sample is kept frozen until use. The tissue is resuspended 1:20 (wt/vol) in 0.05 M Tris-HCl buffer containing 120 mM NaCl prior to use.
Non-specific binding is defined as that binding found in the presence of 1 mM spiperone; without further additions, nonspecific binding is less than 20% of total binding.

`CCCCN(C(=O)CN1CCN(Cc2ccc(Cl)cc2)CC1)c1ccccc1` [Compound 2, N-butyl-2-(4-(4-chlorobenzyl)piperazinyl)-N-phenylethanamide] gave a Ki of 154 nM.
